Test results taken from the NIST ThermoML archive (doi:10.1016/j.jct.2008.12.021).
± gives the expanded uncertainty stated by the source.

Assay: osmotic coefficient (dimensionless); mn = molality of the nth substance listed, in mol/kg
Settings: 323.15 K, Liquid, vapour pressure osmometer

Compound: COS(=O)(=O)[O-].Cn1cc[n+](C)c1 [1,3-dimethylimidazolium methylsulfate] + CC(C)O
- osmotic coefficient (m1 = 0.0241): 0.914 ± 0.012
- osmotic coefficient (m1 = 0.0557): 0.846 ± 0.013
- osmotic coefficient (m1 = 0.2089): 0.683 ± 0.016
- osmotic coefficient (m1 = 0.3053): 0.614 ± 0.018
- osmotic coefficient (m1 = 0.3982): 0.588 ± 0.019
- osmotic coefficient (m1 = 0.6947): 0.509 ± 0.021
- osmotic coefficient (m1 = 0.9721): 0.461 ± 0.023
- osmotic coefficient (m1 = 1.274): 0.442 ± 0.023
- osmotic coefficient (m1 = 1.66): 0.416 ± 0.024
- osmotic coefficient (m1 = 2.058): 0.392 ± 0.025
- osmotic coefficient (m1 = 2.447): 0.364 ± 0.025
- osmotic coefficient (m1 = 2.827): 0.343 ± 0.026
- osmotic coefficient (m1 = 3.313): 0.329 ± 0.027
- osmotic coefficient (m1 = 3.712): 0.323 ± 0.027
- osmotic coefficient (m1 = 4.112): 0.298 ± 0.028

Compound: COS(=O)(=O)[O-].Cn1cc[n+](C)c1 [1,3-dimethylimidazolium methylsulfate] + CCCO
- osmotic coefficient (m1 = 0.0512): 0.848 ± 0.013
- osmotic coefficient (m1 = 0.079): 0.772 ± 0.014
- osmotic coefficient (m1 = 0.0997): 0.727 ± 0.015
- osmotic coefficient (m1 = 0.2023): 0.67 ± 0.017
- osmotic coefficient (m1 = 0.2902): 0.59 ± 0.019
- osmotic coefficient (m1 = 0.3952): 0.544 ± 0.02
- osmotic coefficient (m1 = 0.488): 0.526 ± 0.021
- osmotic coefficient (m1 = 0.6881): 0.492 ± 0.022
- osmotic coefficient (m1 = 0.9815): 0.454 ± 0.023
- osmotic coefficient (m1 = 1.299): 0.432 ± 0.023
- osmotic coefficient (m1 = 1.691): 0.396 ± 0.025
- osmotic coefficient (m1 = 2.097): 0.375 ± 0.025
- osmotic coefficient (m1 = 2.545): 0.36 ± 0.026
- osmotic coefficient (m1 = 2.929): 0.343 ± 0.026
- osmotic coefficient (m1 = 3.323): 0.334 ± 0.026
- osmotic coefficient (m1 = 3.71): 0.322 ± 0.027

Compound: COS(=O)(=O)[O-].Cn1cc[n+](C)c1 [1,3-dimethylimidazolium methylsulfate] + CCO
- osmotic coefficient (m1 = 0.0289): 0.815 ± 0.014
- osmotic coefficient (m1 = 0.0374): 0.794 ± 0.014
- osmotic coefficient (m1 = 0.0789): 0.719 ± 0.016
- osmotic coefficient (m1 = 0.0991): 0.687 ± 0.016
- osmotic coefficient (m1 = 0.1941): 0.626 ± 0.018
- osmotic coefficient (m1 = 0.3285): 0.56 ± 0.02
- osmotic coefficient (m1 = 0.4326): 0.53 ± 0.021
- osmotic coefficient (m1 = 0.5312): 0.503 ± 0.021
- osmotic coefficient (m1 = 0.6925): 0.479 ± 0.022
- osmotic coefficient (m1 = 0.9868): 0.449 ± 0.023
- osmotic coefficient (m1 = 1.284): 0.424 ± 0.024
- osmotic coefficient (m1 = 1.699): 0.399 ± 0.024
- osmotic coefficient (m1 = 2.078): 0.382 ± 0.025
- osmotic coefficient (m1 = 2.489): 0.363 ± 0.026
- osmotic coefficient (m1 = 2.937): 0.345 ± 0.026
- osmotic coefficient (m1 = 3.314): 0.326 ± 0.027
- osmotic coefficient (m1 = 3.709): 0.325 ± 0.027
- osmotic coefficient (m1 = 4.016): 0.331 ± 0.027

Compound: CCCCn1cc[n+](C)c1.COS(=O)(=O)[O-] [1-butyl-3-methylimidazolium methyl sulfate] + CC(C)O
- osmotic coefficient (m1 = 0.0524): 0.95 ± 0.012
- osmotic coefficient (m1 = 0.0842): 0.905 ± 0.012
- osmotic coefficient (m1 = 0.1084): 0.871 ± 0.013
- osmotic coefficient (m1 = 0.2087): 0.799 ± 0.014
- osmotic coefficient (m1 = 0.3036): 0.733 ± 0.015
- osmotic coefficient (m1 = 0.4106): 0.685 ± 0.016
- osmotic coefficient (m1 = 0.4869): 0.648 ± 0.017
- osmotic coefficient (m1 = 0.682): 0.588 ± 0.019
- osmotic coefficient (m1 = 0.9823): 0.523 ± 0.021
- osmotic coefficient (m1 = 1.32): 0.493 ± 0.022
- osmotic coefficient (m1 = 1.692): 0.488 ± 0.022
- osmotic coefficient (m1 = 2.05): 0.502 ± 0.021
- osmotic coefficient (m1 = 2.446): 0.48 ± 0.022
- osmotic coefficient (m1 = 2.829): 0.455 ± 0.023
- osmotic coefficient (m1 = 3.311): 0.451 ± 0.023

Compound: CCCCn1cc[n+](C)c1.COS(=O)(=O)[O-] [1-butyl-3-methylimidazolium methyl sulfate] + CCCO
- osmotic coefficient (m1 = 0.0437): 0.873 ± 0.013
- osmotic coefficient (m1 = 0.0547): 0.829 ± 0.013
- osmotic coefficient (m1 = 0.2041): 0.691 ± 0.016
- osmotic coefficient (m1 = 0.3571): 0.639 ± 0.018
- osmotic coefficient (m1 = 0.5002): 0.628 ± 0.018
- osmotic coefficient (m1 = 0.6627): 0.628 ± 0.018
- osmotic coefficient (m1 = 0.8487): 0.629 ± 0.018
- osmotic coefficient (m1 = 1.007): 0.629 ± 0.018
- osmotic coefficient (m1 = 1.28): 0.628 ± 0.018
- osmotic coefficient (m1 = 1.665): 0.62 ± 0.018
- osmotic coefficient (m1 = 2.143): 0.599 ± 0.019
- osmotic coefficient (m1 = 2.937): 0.581 ± 0.019

Compound: CCCCn1cc[n+](C)c1.COS(=O)(=O)[O-] [1-butyl-3-methylimidazolium methyl sulfate] + CCO
- osmotic coefficient (m1 = 0.0495): 0.78 ± 0.014
- osmotic coefficient (m1 = 0.0783): 0.716 ± 0.016
- osmotic coefficient (m1 = 0.176): 0.646 ± 0.017
- osmotic coefficient (m1 = 0.3283): 0.573 ± 0.019
- osmotic coefficient (m1 = 0.3907): 0.55 ± 0.02
- osmotic coefficient (m1 = 0.5167): 0.529 ± 0.021
- osmotic coefficient (m1 = 0.6846): 0.508 ± 0.021
- osmotic coefficient (m1 = 0.9851): 0.496 ± 0.021
- osmotic coefficient (m1 = 1.318): 0.499 ± 0.021
- osmotic coefficient (m1 = 1.727): 0.48 ± 0.022
- osmotic coefficient (m1 = 2.093): 0.474 ± 0.022
- osmotic coefficient (m1 = 2.507): 0.465 ± 0.022
- osmotic coefficient (m1 = 2.914): 0.448 ± 0.023
- osmotic coefficient (m1 = 3.311): 0.424 ± 0.024
- osmotic coefficient (m1 = 3.697): 0.408 ± 0.024
